In ChEMBL document CHEMBL6121004, “Design, synthesis, and biological evaluation of Ponatinib-based N-Phenylpyrimidine-2-amine derivatives as novel fibroblast growth factor receptor 4 (FGFR4) selective inhibitors” (Eur J Med Chem, 2025):
Calls of active or inactive are those of the source. The rule behind the calls is not given here.

How the values were obtained:
[1] = Antiproliferative activity against human L02 cells assessed as inhibition of cell proliferation incubated for 72 hrs by MTT assay; format: toxicity, cell-based
[2] = target: Platelet-derived growth factor receptor alpha (Homo sapiens) (UniProt P16234); experiment: Inhibition of PDGFRalpha (unknown origin) at 1 uM relative to control
Homo sapiens = species on record: Homo sapiens; experiment: Inhibition of SRC (unknown origin) at 1 uM relative to control
Huh-7 [3] = experiment: Induction of apoptosis in human Huh-7 cells assessed as viable cells at 0.5 uM incubated for 48 hrs by annexin V-FITC/propidium iodide staining based flow cytometry analysis (reference value: 84.91%); format: functional; conditions: read-out: Activity
Huh-7 [4] = experiment: Induction of apoptosis in human Huh-7 cells assessed as early apoptotic cells at 0.5 uM incubated for 48 hrs by annexin V-FITC/propidium iodide staining based flow cytometry analysis (reference value: 4.59%); format: functional
Huh-7 [5] = experiment: Induction of apoptosis in human Huh-7 cells assessed as early apoptotic cells at 1 uM incubated for 48 hrs by annexin V-FITC/propidium iodide staining based flow cytometry analysis (reference value: 4.59%); format: functional
Huh-7 [6] = experiment: Induction of apoptosis in human Huh-7 cells assessed as necrotic cells at 1 uM incubated for 48 hrs by annexin V-FITC/propidium iodide staining based flow cytometry analysis (reference value: 5.20%); format: functional
Huh-7 [7] = experiment: Induction of apoptosis in human Huh-7 cells assessed as viable cells at 0.1 uM incubated for 48 hrs by annexin V-FITC/propidium iodide staining based flow cytometry analysis (reference value: 84.91%); format: functional; conditions: read-out: Activity
Huh-7 [8] = experiment: Induction of apoptosis in human Huh-7 cells assessed as early apoptotic cells at 0.1 uM incubated for 48 hrs by annexin V-FITC/propidium iodide staining based flow cytometry analysis (reference value: 4.59%); format: functional
Huh-7 [9] = experiment: Induction of apoptosis in human Huh-7 cells assessed as late apoptotic cells at 0.1 uM incubated for 48 hrs by annexin V-FITC/propidium iodide staining based flow cytometry analysis (reference value: 5.20%); format: functional
Huh-7 [10] = experiment: Induction of apoptosis in human Huh-7 cells assessed as necrotic cells at 0.1 uM incubated for 48 hrs by annexin V-FITC/propidium iodide staining based flow cytometry analysis (reference value: 5.20%); format: functional
Hep 3B2 [11] = experiment: Induction of apoptosis in human Hep3B cells assessed as viable cells at 0.5 uM incubated for 48 hrs by annexin V-FITC/propidium iodide staining based flow cytometry analysis (reference value: 84.91%); format: functional; conditions: read-out: Activity
Hep 3B2 [12] = experiment: Induction of apoptosis in human Hep3B cells assessed as late apoptotic cells at 0.5 uM incubated for 48 hrs by annexin V-FITC/propidium iodide staining based flow cytometry analysis (reference value: 5.20%); format: functional
Hep 3B2 [13] = experiment: Induction of apoptosis in human Hep3B cells assessed as viable cells at 1 uM incubated for 48 hrs by annexin V-FITC/propidium iodide staining based flow cytometry analysis (reference value: 84.91%); format: functional; conditions: read-out: Activity
Hep 3B2 [14] = experiment: Induction of apoptosis in human Hep3B cells assessed as early apoptotic cells at 1 uM incubated for 48 hrs by annexin V-FITC/propidium iodide staining based flow cytometry analysis (reference value: 4.69%); format: functional
Hep 3B2 [15] = experiment: Induction of apoptosis in human Hep3B cells assessed as late apoptotic cells at 1 uM incubated for 48 hrs by annexin V-FITC/propidium iodide staining based flow cytometry analysis (reference value: 5.20%); format: functional
Hep 3B2 [16] = experiment: Induction of apoptosis in human Hep3B cells assessed as necrotic cells at 1 uM incubated for 48 hrs by annexin V-FITC/propidium iodide staining based flow cytometry analysis (reference value: 5.20%); format: functional
Hep 3B2 [17] = experiment: Induction of apoptosis in human Hep3B cells assessed as viable cells at 0.25 uM incubated for 48 hrs by annexin V-FITC/propidium iodide staining based flow cytometry analysis (reference value: 84.91%); format: functional; conditions: read-out: Activity
Hep 3B2 [18] = experiment: Induction of apoptosis in human Hep3B cells assessed as early apoptotic cells at 0.25 uM incubated for 48 hrs by annexin V-FITC/propidium iodide staining based flow cytometry analysis (reference value: 4.69%); format: functional
Hep 3B2 [19] = experiment: Induction of apoptosis in human Hep3B cells assessed as late apoptotic cells at 0.25 uM incubated for 48 hrs by annexin V-FITC/propidium iodide staining based flow cytometry analysis (reference value: 5.20%); format: functional
Hep 3B2 [20] = experiment: Induction of apoptosis in human Hep3B cells assessed as necrotic cells at 0.25 uM incubated for 48 hrs by annexin V-FITC/propidium iodide staining based flow cytometry analysis (reference value: 5.20%); format: functional
Hep3B [21] = experiment: Inhibition of MAPK phosphorylation in human Hep3B cells incubated for 48 hrs by Western blot analysis; format: cell-based; conditions: dose 0.25-1 µM
Hep 3B2 [22] = experiment: Effect on FGFR4 level in human Hep3B cells at 0.25 to 1 uM incubated for 48 hrs by Western blot analysis; format: functional, cell-based; conditions: dose 0.25-1 µM
Hep 3B2 [23] = experiment: Effect on MAPK level in human Hep3B cells at 0.25 to 1 uM incubated for 48 hrs by Western blot analysis; format: functional, cell-based; conditions: dose 0.25-1 µM
Hep3B [24] = experiment: Inhibition of MAPK phosphorylation in human Hep3B cells at 0.4 uM incubated for 48 hrs by Western blot analysis; format: cell-based
[25] = AUC (0 to t) in BALB/c male mouse at 10 mg/kg, po measured upto 24 hrs by LC-MS/MS analysis; format: ADME, organism-based; conditions: in vivo
[26] = MRT (0 to t) in BALB/c male mouse at 1 mg/kg, iv measured upto 24 hrs by LC-MS/MS analysis; format: ADME, organism-based; conditions: in vivo
[27] = MRT (0 to t) in BALB/c male mouse at 10 mg/kg, po measured upto 24 hrs by LC-MS/MS analysis; format: ADME, organism-based; conditions: in vivo
[28] = Volume of distribution at steady state in BALB/c male mouse at 1 mg/kg, iv measured upto 24 hrs by LC-MS/MS analysis; format: ADME, organism-based; conditions: in vivo, read-out: Vdss
[29] = Half life in BALB/c male mouse at 1 mg/kg, iv measured upto 24 hrs by LC-MS/MS analysis; format: ADME, organism-based; conditions: in vivo
[30] = Half life in BALB/c male mouse at 10 mg/kg, po measured upto 24 hrs by LC-MS/MS analysis; format: ADME, organism-based; conditions: in vivo
[31] = Toxicity in male nude mouse implanted with human Huh-7 cells assessed as body weight loss at 12.5 to 50 mg/kg, ip administered for 15 days; format: organism-based; conditions: in vivo, 360 h, dose 12.5-50 mg/kg, time 15 day
[32] = Toxicity in male nude mouse implanted with human Huh-7 cells assessed as lung damage at 12.5 to 50 mg/kg, ip administered for 15 days; format: organism-based; conditions: in vivo, 360 h, dose 12.5-50 mg/kg, time 15 day
[33] = Toxicity in male nude mouse implanted with human Huh-7 cells assessed as spleen damage at 12.5 to 50 mg/kg, ip administered for 15 days; format: organism-based; conditions: in vivo, 360 h, dose 12.5-50 mg/kg, time 15 day
[34] = Toxicity in male nude mouse implanted with human Huh-7 cells assessed as heart damage at 12.5 to 50 mg/kg, ip administered for 15 days; format: organism-based; conditions: in vivo, 360 h, dose 12.5-50 mg/kg, time 15 day
Hep 3B2 [35] = experiment: cells; conditions: Homo sapiens, Hep3B, 72 h
Description: Antiproliferative activity against human Hep3B cells assessed as inhibition of cell proliferation incubated for 72 hrs by MTT assay

Huh-7 [36] = experiment: cells; conditions: Homo sapiens, Huh-7, 72 h
Description: Antiproliferative activity against human Huh-7 cells assessed as inhibition of cell proliferation incubated for 72 hrs by MTT assay

MDA-MB-231 = experiment: cells; conditions: Homo sapiens, MDA-MB-231, 72 h
Description: Antiproliferative activity against human MDA-MB-231 cells assessed as inhibition of cell proliferation incubated for 72 hrs by MTT assay

Chain of Platelet-derived growth factor receptor alpha (Homo sapiens) (P16234 whole entry): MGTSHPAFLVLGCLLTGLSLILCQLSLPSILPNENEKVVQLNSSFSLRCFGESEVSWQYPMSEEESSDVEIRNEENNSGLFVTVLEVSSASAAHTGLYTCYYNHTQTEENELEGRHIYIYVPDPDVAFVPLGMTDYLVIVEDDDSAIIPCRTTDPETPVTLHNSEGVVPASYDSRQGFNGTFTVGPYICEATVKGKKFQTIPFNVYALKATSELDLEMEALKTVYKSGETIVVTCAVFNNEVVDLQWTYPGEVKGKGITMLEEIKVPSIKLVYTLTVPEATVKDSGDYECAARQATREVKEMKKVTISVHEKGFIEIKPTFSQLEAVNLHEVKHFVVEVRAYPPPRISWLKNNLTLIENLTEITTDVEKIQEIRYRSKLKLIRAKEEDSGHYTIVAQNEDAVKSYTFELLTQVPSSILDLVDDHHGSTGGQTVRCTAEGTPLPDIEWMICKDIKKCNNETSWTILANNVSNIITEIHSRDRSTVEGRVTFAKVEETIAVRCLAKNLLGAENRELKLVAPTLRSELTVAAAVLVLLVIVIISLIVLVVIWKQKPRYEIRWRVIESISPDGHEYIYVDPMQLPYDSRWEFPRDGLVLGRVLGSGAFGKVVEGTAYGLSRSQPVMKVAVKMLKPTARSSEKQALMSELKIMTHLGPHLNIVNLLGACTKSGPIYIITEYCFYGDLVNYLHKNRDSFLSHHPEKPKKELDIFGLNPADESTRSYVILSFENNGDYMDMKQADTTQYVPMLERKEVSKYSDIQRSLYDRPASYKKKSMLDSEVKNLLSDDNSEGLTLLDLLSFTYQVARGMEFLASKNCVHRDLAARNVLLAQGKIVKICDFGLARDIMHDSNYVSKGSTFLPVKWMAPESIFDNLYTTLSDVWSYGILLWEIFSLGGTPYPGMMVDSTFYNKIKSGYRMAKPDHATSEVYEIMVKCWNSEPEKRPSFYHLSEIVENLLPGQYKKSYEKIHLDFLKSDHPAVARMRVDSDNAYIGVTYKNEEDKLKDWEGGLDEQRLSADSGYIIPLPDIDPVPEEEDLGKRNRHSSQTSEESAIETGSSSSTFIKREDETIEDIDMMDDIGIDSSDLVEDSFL

- inhibition [2]: < 70%
- inhibition (Homo sapiens): < 70%
- AUC(0-t) at 24 h [25]: 0.318 µg·h/mL
- MRT last at 24 h [26]: 0.77 h
- MRT last at 24 h [27]: 2.65 h
- Vd [28]: 3.52 L/kg
- half-life [29]: 0.79 h
- half-life [30]: 1.4 h
- IC50 (Hep 3B2 [35]): 0.07 µM
- IC50 (Huh-7 [36]): 0.15 µM
- IC50 (MDA-MB-231): 5.6 µM
Compound: C=CC(=O)Nc1cccc(C)c1Nc1ncc(C#Cc2cccc(C(=O)Nc3ccc(CN4CCN(C)CC4)c(C(F)(F)F)c3)c2)cn1
- IC50 at 72 h [1]: > 10 µM
- viability at 0.5 µM (Huh-7 [3]): 75.3%
- Activity (Huh-7 [4]): 5.07%
- Activity (Huh-7 [5]): 2.12%
- Activity (Huh-7 [6]): 9.67%
- viability at 0.1 µM (Huh-7 [7]): 88.8%
- Activity (Huh-7 [8]): 3.69%
- Activity (Huh-7 [9]): 5.12%
- Activity (Huh-7 [10]): 2.37%
- viability at 0.5 µM (Hep 3B2 [11]): 68.9%
- Activity (Hep 3B2 [12]): 18.41%
- viability at 1 µM (Hep 3B2 [13]): 63.2%
- Activity (Hep 3B2 [14]): 9.61%
- Activity (Hep 3B2 [15]): 22.07%
- Activity (Hep 3B2 [16]): 5.13%
- viability at 0.25 µM (Hep 3B2 [17]): 80.8%
- Activity (Hep 3B2 [18]): 4.38%
- Activity (Hep 3B2 [19]): 9.17%
- Activity (Hep 3B2 [20]): 5.62%
- inhibition (Hep3B [21]): Dose-dependent-effect
- Activity (Hep 3B2 [22]): Active
- Activity (Hep 3B2 [23]): Active
- inhibition (Hep3B [24]): Active
- Activity [31]: Non-toxic
- Activity [32]: Non-toxic
- Activity [33]: Non-toxic
- Activity [34]: Non-toxic
